Usually IC50 stands for the point on the concentration scale where inhibition reaches its midpoint.

Assay [1] concerns ATXN3 transcripts containing exon 4 (E4E5). Nature of the assay: ATXN3 quantitative splicing assay (qPCR, SK-N-MC cells). In kind it is cell-based. Particulars: Homo sapiens, 24 h treatment, qPCR E4E5 primers/probe, read-out: ATXN3 Potency - Splicing E4E5 IC50. The protocol: Human neuroblastoma SK-N-MC cells were plated in 384-well plates at 20,000 cells/well. Twenty-four hours after plating, cells were treated with compounds for 24 h at appropriate concentrations ranging from 30 μM to 0.6 nM (0.3% DMSO). Treated cells were lysed in 15 μL of lysis buffer, and cDNA was synthesized using the Fast Advanced Cells-to-Ct kit. Two μL of each cDNA was used in qPCR reactions to confirm the exon 4 skipped transcripts of ATXN3. A second set of primers/probe E4E5 was used to detect the transcripts containing exon 4. The third set of primers/probe E8E9 was used to detect total gene level of ATXN3. The qPCR reactions were prepared in 384-well plates in 10 μL volume, using TaqMan™ Fast Advanced Master Mix with primers and probes shown in the table below. Reactions were run in a Quant Studio 6 qPCR instrument with default settings.
The primers and probes are listed below in Table 4.
(In general: Real-time PCR tracks product formation cycle by cycle.)

For the next assay, the system named is total ATXN3 protein. Kind of assay: ATXN3 total protein assay (MSD, SK-N-MC cells). The conditions noted are these: 48 hours incubation, read-out: ATXN3 Potency - Protein IC50. In kind it is cell-based, Human. The protocol: Human neuroblastoma SK-N-MC cells were seeded at 10,000 cells/well in 384 well plates one day prior to compound treatment. The concentrations of compounds were tested at appropriate doses ranging from 30 μM to 0.6 nM. After incubation for 48 hours, the cells were lysed with 25 μL of lysis buffer containing protease inhibitors, and total ATXN3 protein levels were assessed by Mesoscale Discovery (MSD) assay developed with one pair of anti-ATXN3 antibodies. The capture and detect antibodies were raised in mouse and rabbit respectively. Anti-rabbit MSD-ST antibody was used for secondary antibody.
ATXN3 recombinant protein was used for standards. The readouts were captured with 35 μL of MSD read buffer and multi-array 384-well high binding plates.

In the case of `Cc1c(C[C@@H](N)C[C@H]2CC2(F)F)sc2c(NCc3cccs3)cnnc12` [Compound 127, 6-[(2S)-2-amino-3-[(1S)-2,2-difluorocyclopropyl]propyl]-7-methyl-N-(thiophen-2-ylmethyl)thieno[3,2-c]pyridazin-4-amine], the 50% inhibitory concentration (IC50) (in assay [1]; in the assay with total ATXN3 protein) was 10 to 40 µM in each case.

Consider `Cc1c(CC2(N)COC2)sc2c(NCc3cccs3)cnnc12` [Compound 92, 6-[(3-aminooxetan-3-yl)methyl]-7-methyl-N-[(thiophen-2-yl)methyl]thieno[3,2-c]pyridazin-4-amine], for which the half-maximal inhibitory concentration (IC50) (in assay [1]; with total ATXN3 protein) was 10 to 40 µM throughout. As for `Cc1c([C@H](C)[C@@H](C)N)sc2c(NCc3cccs3)cnnc12` [Compound 99, 6-[(2R,3R)-3-aminobutan-2-yl]-7-methyl-N-[(thiophen-2-yl)methyl]thieno[3,2-c]pyridazin-4-amine], the IC50 (in assay [1]; in the assay on total ATXN3 protein) was 10 to 40 µM throughout. Turning to `Cc1c(C[C@H](C)N)sc2c(NCc3cccs3)cnnc12` [Compound 4, 6-[(2S)-2-aminopropyl]-7-methyl-N-(thiophen-2-ylmethyl)thieno[3,2-c]pyridazin-4-amine], the IC50 was in the range of 0.501 to 5 µM in assay [1] and 0.101 to 0.5 µM with total ATXN3 protein. On the same counts, the results for `Cc1c(C[C@H]2CCN2)sc2c(NCc3cccs3)cnnc12` [Compound 72, 6-{[(2R)-azetidin-2-yl]methyl}-7-methyl-N-[(thiophen-2-yl)methyl]thieno[3,2-c]pyridazin-4-amine] are 10 to 40 µM and 10 to 40 µM.

`COc1csc(CNc2cnnc3c(C)c(C[C@H](C)N)sc23)c1` [Compound 75, 6-[(2S)-2-aminopropyl]-N-[(4-methoxythiophen-2-yl)methyl]-7-methylthieno[3,2-c]pyridazin-4-amine]: the concentration for half-maximal inhibition (IC50) (in assay [1]; in the assay with total ATXN3 protein) was 10 to 40 µM in each case.

As for `COc1nnc2c(C)c(C[C@H](C)N)sc2c1NCc1cccs1` [Compound 86, 6-[(2S)-2-aminopropyl]-3-methoxy-7-methyl-N-[(thiophen-2-yl)methyl]thieno[3,2-c]pyridazin-4-amine], the half-maximal inhibitory concentration (IC50) (in assay [1]; in the assay with total ATXN3 protein) was 10 to 40 µM in each case. For `Cc1nnc2c(C)c(C[C@H](C)N)sc2c1NCc1cccs1` [Compound 19, 6-[(2S)-2-aminopropyl]-3,7-dimethyl-N-[(thiophen-2-yl)methyl]thieno[3,2-c]pyridazin-4-amine], the 50% inhibitory concentration (IC50) (in assay [1]; with total ATXN3 protein) was 10 to 40 µM throughout.

For `C[C@H](F)[C@H](N)Cc1sc2c(NCc3cccs3)cnnc2c1Br` [Compound 135, 6-[(2R,3S)-2-amino-3-fluorobutyl]-7-bromo-N-[(thiophen-2-yl)methyl]thieno[3,2-c]pyridazin-4-amine], the IC50 (in assay [1]; with total ATXN3 protein) was 0.101 to 0.5 µM throughout.

For the compound `Cc1c(C[C@@H](N)CC(F)(F)F)sc2c(NCc3cccs3)cnnc12` [Compound 50, 6-[(2S)-2-amino-4,4,4-trifluorobutyl]-7-methyl-N-[(thiophen-2-yl)methyl]thieno[3,2-c]pyridazin-4-amine], the concentration for half-maximal inhibition (IC50) (in assay [1]; in the assay on total ATXN3 protein) was 0.501 to 5 µM throughout. Regarding `Cc1c(C[C@@H](N)CO)sc2c(NCc3sccc3F)cnnc12` [Compound 9, (2R)-2-amino-3-(4-{[(3-fluorothiophen-2-yl)methyl]amino}-7-methylthieno[3,2-c]pyridazin-6-yl)propan-1-ol], the IC50 (in assay [1]; with total ATXN3 protein) was 10 to 40 µM in each case. For the compound `Cc1c(C[C@H](C)N)sc2c(Nc3cccs3)cnnc12` [Compound 82, 6-[(2S)-2-aminopropyl]-7-methyl-N-(thiophen-2-yl)thieno[3,2-c]pyridazin-4-amine], the IC50 (in assay [1]; in the assay on total ATXN3 protein) was 10 to 40 µM in each case. With `Cc1c(C[C@H](C)N)sc2c(NCc3csc(F)c3)cnnc12` [Compound 56, 6-[(2S)-2-aminopropyl]-N-[(5-fluorothiophen-3-yl)methyl]-7-methylthieno[3,2-c]pyridazin-4-amine], the half-inhibitory concentration (IC50) (in assay [1]; with total ATXN3 protein) was 10 to 40 µM in each case.

For `Cc1c(C[C@@H](N)CS(C)(=O)=O)sc2c(NCc3ccco3)cnnc12` [Compound 32, 6-[(2R)-2-amino-3-methanesulfonylpropyl]-N-[(furan-2-yl)methyl]-7-methylthieno[3,2-c]pyridazin-4-amine], the concentration for half-maximal inhibition (IC50) (in assay [1]; with total ATXN3 protein) was 10 to 40 µM in each case. For `Cc1c(C[C@@H](N)[C@@H](C)F)sc2c(NCc3cccs3)cnnc12` [Compound 111, 6-[(2R,3R)-2-amino-3-fluorobutyl]-7-methyl-N-[(thiophen-2-yl)methyl]thieno[3,2-c]pyridazin-4-amine], the IC50 (in assay [1]; in the assay with total ATXN3 protein) was 0.501 to 5 µM throughout.

As for `Cc1c(C(F)[C@H](C)N)sc2c(NCc3cccs3)cnnc12` (stereo partly drawn) [Compound 55, 6-[(2S)-2-amino-1-fluoropropyl]-7-methyl-N-[(thiophen-2-yl)methyl]thieno[3,2-c]pyridazin-4-amine], the IC50 (in assay [1]; in the assay on total ATXN3 protein) was 0.501 to 5 µM in each case. With `Cc1c(C[C@H]2CCCN2)sc2c(NCc3cccs3)cnnc12` [Compound 69, 7-methyl-6-[(2R)-pyrrolidin-2-ylmethyl]-N-(thiophen-2-ylmethyl)thieno[3,2-c]pyridazin-4-amine], the concentration for half-maximal inhibition (IC50) (in assay [1]; in the assay on total ATXN3 protein) was 10 to 40 µM each time.

With `Cc1c(C[C@H](C)N)sc2c(NCn3cccn3)cnnc12` [Compound 15, 6-[(2S)-2-aminopropyl]-7-methyl-N-[(1H-pyrazol-1-yl)methyl]thieno[3,2-c]pyridazin-4-amine], the IC50 (in assay [1]; in the assay on total ATXN3 protein) was 0.501 to 5 µM each time. `Cc1c(C[C@@H](N)[C@H](C)F)sc2c(NCc3cccs3)cnnc12` [Compound 110, 6-[(2R,3S)-2-amino-3-fluorobutyl]-7-methyl-N-[(thiophen-2-yl)methyl]thieno[3,2-c]pyridazin-4-amine]: the concentration for half-maximal inhibition (IC50) (in assay [1]; in the assay on total ATXN3 protein) was 0.101 to 0.5 µM in each case. As to `Cc1c(C(C)CO)sc2c(NCc3cccs3)cnnc12` (stereo not drawn) [Compound 54, 2-{7-methyl-4-[(thiophen-2-ylmethyl)amino]thieno[3,2-c]pyridazin-6-yl}propan-1-ol], the IC50 (in assay [1]; with total ATXN3 protein) was 10 to 40 µM throughout.

In the case of `Cc1c(CC2CNC2)sc2c(NCc3cccs3)cnnc12` [Compound 73, 6-[(azetidin-3-yl)methyl]-7-methyl-N-[(thiophen-2-yl)methyl]thieno[3,2-c]pyridazin-4-amine], the IC50 (in assay [1]; in the assay on total ATXN3 protein) was 10 to 40 µM in each case. `Cc1c(C[C@H](C)N)sc2c(NCn3cccc3)cnnc12` [Compound 43, 6-[(2S)-2-aminopropyl]-7-methyl-N-[(1H-pyrrol-1-yl)methyl]thieno[3,2-c]pyridazin-4-amine]: the half-maximal inhibitory concentration (IC50) (in assay [1]; in the assay on total ATXN3 protein) was 5 to 10 µM each time. On to `Cc1c(C[C@@H](N)CC(F)F)sc2c(NCc3cccs3)cnnc12` [Compound 28, 6-[(2S)-2-amino-4,4-difluorobutyl]-7-methyl-N-[(thiophen-2-yl)methyl]thieno[3,2-c]pyridazin-4-amine], for which the IC50 (in assay [1]; in the assay with total ATXN3 protein) was 10 to 40 µM throughout. Consider `CCc1csc2c(NCc3cccs3)cnnc12` [Compound 40, 7-ethyl-N-[(thiophen-2-yl)methyl]thieno[3,2-c]pyridazin-4-amine], for which the half-maximal inhibitory concentration (IC50) (in assay [1]; with total ATXN3 protein) was 10 to 40 µM throughout. With `CCc1c(C[C@H](C)N)sc2c(NCc3cccs3)cnnc12` [Compound 23, 6-[(2S)-2-aminopropyl]-7-ethyl-N-[(thiophen-2-yl)methyl]thieno[3,2-c]pyridazin-4-amine], the IC50 (in assay [1]; with total ATXN3 protein) was 5 to 10 µM in each case. For the compound `Brc1csc2c(NCc3cccs3)cnnc12` [Compound 63, 7-bromo-N-(thiophen-2-ylmethyl)thieno[3,2-c]pyridazin-4-amine], the IC50 (in assay [1]; with total ATXN3 protein) was 10 to 40 µM each time. For `Cc1ccsc1CNc1cnnc2c(C)c(C[C@H](C)N)sc12` [Compound 78, 6-[(2S)-2-aminopropyl]-7-methyl-N-[(3-methylthiophen-2-yl)methyl]thieno[3,2-c]pyridazin-4-amine], the half-maximal inhibitory concentration (IC50) with total ATXN3 protein was 10 to 40 µM.

Take `Cc1ccc(CNc2cnnc3c(C)c(C[C@H](C)N)sc23)s1` [Compound 77, 6-[(2S)-2-aminopropyl]-7-methyl-N-[(5-methylthiophen-2-yl)methyl]thieno[3,2-c]pyridazin-4-amine]: the IC50 in the assay with total ATXN3 protein was 10 to 40 µM. As for `Cc1c(C[C@@H]2CCCN2)sc2c(NCc3cccs3)cnnc12` [Compound 70, 7-methyl-6-{[(2S)-pyrrolidin-2-yl]methyl}-N-[(thiophen-2-yl)methyl]thieno[3,2-c]pyridazin-4-amine], in the assay with total ATXN3 protein, the IC50 is 10 to 40 µM. Still for that read-out and setting: the result for `Cc1csc(CNc2cnnc3c(C)c(C[C@H](C)N)sc23)c1` [Compound 79, 6-[(2S)-2-aminopropyl]-7-methyl-N-[(4-methylthiophen-2-yl)methyl]thieno[3,2-c]pyridazin-4-amine] reads 10 to 40 µM; that for `CC(=O)CCc1sc2c(NCc3cccs3)cnnc2c1C` [Compound 88, 4-{7-methyl-4-[(thiophen-2-ylmethyl)amino]thieno[3,2-c]pyridazin-6-yl}butan-2-one], 10 to 40 µM.

The record behind these values is patent US20250101034A1, “COMPOSITIONS USEFUL FOR MODULATING SPLICING” (SKYHAWK THERAPEUTICS, INC., priority 2021, published 2025).
